Test results reported in patent US20250101204A1, “COMPOSITIONS AND METHODS FOR PROTECTING AGAINST CELL DAMAGE AND INFLAMMATION” (priority 2022, published 2025).
Positions count from the first letter of the chain named. Entries after “also recorded” stand apart in the source; their conditions may differ. Like-named read-outs stand apart in the source and are kept apart here. Peptide text beside a SMILES is read from it. * marks the point of attachment. Cbz = O=C(OCc1ccccc1)*

Columns and labels:
[1] = system: human pulmonary artery endothelial cells (HPAEC); assay: genotoxic stress induced in HPAEC by Doxorubicin; assay type: cell-based; conditions: Doxorubicin 1 μg/ml for 24 h
Protocol: (§1) To study the activities of HMGB1 cysteines, peptides were designed with cell-penetrating TAT sequences that bind to either Cys106 or Cys23/45 and prevent the interaction of these cysteines with the downstream targets. The intracellular activities of peptides were evaluated by measuring HMGB1 cytosol/nuclear distribution and the ability to regulate the recombinant HMGB1 binding to double-stranded DNA. The protective role of the Cys106-shielding peptide (αHMGB1^Cys106; SEQ ID NO: 4) was estimated using the rat Sugen/Hypoxia (Su/Hx) PAH model and human endothelial pulmonary artery cells (hPAEC).

HMGB1 [2] = target: T1, HMGB1 (Homo sapiens, UniProt P09429); assay: HMGB1 cytosol/nuclear distribution in fractionated PASMC; assay type: cell-based; conditions: for cytosol and nuclear levels of HMGB1: PASMC cytosolic and nuclear fraction; for exit of nuclear HMGB1 to the cytosol: especially evident in male cells
T1 construct: endogenous in cells; host or cells: pulmonary artery smooth muscle cells (PASMC), male and female
T1 sequence (P09429 1-215): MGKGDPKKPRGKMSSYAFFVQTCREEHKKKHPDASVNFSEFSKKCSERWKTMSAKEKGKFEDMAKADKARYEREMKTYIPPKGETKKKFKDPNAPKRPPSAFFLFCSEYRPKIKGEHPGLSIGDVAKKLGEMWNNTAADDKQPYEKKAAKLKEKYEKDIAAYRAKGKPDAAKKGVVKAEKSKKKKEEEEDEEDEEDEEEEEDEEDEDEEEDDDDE
Excerpt: FIGS. 1A, 1B, 1C, and 1D show only intracellular Cysteine^106 lowers HMGB1 levels in both fractions. FIGS. 1A and 1B show peptides that bind to HMGB1^Cys106 but not HMGB1^Cys23/45 reduce HMGB1 levels in PASMC cytosolic and nuclear fraction.
FIGS. 2A and 2B show […] increases HMGB1 expulsion from the nucleus to cytosol. A proteasome inhibitor (e.g., MG 132) restores cytosolic (FIG. 2A) and nuclear (FIG. 2B) HMGB1 levels reduced by αHMGB1^Cys106 peptide.
(§2) To study the activities of HMGB1 cysteines, peptides were designed that bind to the specific regions of HMGB1 and, by shielding either Cys106 or Cys23/45, prevent their interaction with the downstream targets. The peptides with cell-penetrating TAT sequences were used to study the intracellular role of HMGB1 cysteines, while peptides without TAT served as extracellular controls. Fractionating pulmonary artery smooth muscle cells (PASMC) allowed the evaluation of HMGB1 cytosol/nuclear distribution. […] The protective role of peptide in vivo was estimated using the rat Sugen/Hypoxia PH model. Given the discovered sex difference in the HMGB1-mediated signaling, the in vitro and in vivo studies were replicated in male and female animals and cells.
as §1

[3] = system: human pulmonary artery endothelial cells (HPAEC); assay: apoptosis in HPAEC stimulated by RITA; assay type: cell-based
Protocol: as §1

p53 [4] = assay: p53 levels in nuclei of PASMC; assay type: cell-based
Excerpt: as §2

apoptosis = assay: cell apoptosis induced by the p53 activator; assay type: cell-based
TLR4 = assay: cytosolic and nuclear TLR4 protein levels; assay type: cell-based
Excerpt: as §2

p53 [5] = assay: p53 expression in vivo in Su/Hx rats; parameters: species or system rat; conditions: either sex
[6] = system: rat Sugen/Hypoxia (Su/Hx) PAH model; assay: rat Sugen/Hypoxia (Su/Hx) PAH model, hemodynamics and right ventricle; assay type: in vivo; conditions: for right ventricle (RV) systolic pressure / protection of the RV: females, 2.5 mg/kg/day i.p.; for right ventricle (RV) systolic pressure: early stage of PH; for protection of the RV: later stage of PH; for hemodynamic parameters / protection in males: male PH rats
Excerpt: as §2, with “cells. […]” for “cells.”
as §1, with “(hPAEC). […]” for “(hPAEC).”

[7] = target: T2, recombinant fully reduced HMGB1 (Homo sapiens, UniProt P09429); assay: HMGB1 binding to calf thymus double-stranded DNA cellulose with or without shielding peptide; assay type: biochemical
T2 sequence (P09429 1-215): T1 sequence (P09429 1-215)
Protocol: The left two gel blots show HMGB1 elution after incubation with DNA cellulose.
as §2
as §1, with “The protective role of the Cys106-shielding peptide (αHMGB1^Cys106; SEQ ID NO: 4) was estimated using the rat Sugen/Hypoxia (Su/Hx) PAH model and human endothelial pulmonary artery cells (hPAEC).” left out

[8] = system: lungs and heart of Su/Hx rats; assay: lung and heart cell damage readouts in Su/Hx rats (apoptosis, senescence, necroptosis, genotoxic stress, fibrosis, hypertrophy); assay type: in vivo, rat; conditions: for genotoxic stress in vivo: Su/Hx rats, in b88 males; for senescence: female and early-stage male PAH
HMGB1 [9] = target: T3, HMGB1 (Rattus norvegicus, UniProt P63159); assay: plasma HMGB1 levels in Su/Hx rats; assay type: in vivo
T3 construct: from tissue; host or cells: plasma of Su/Hx rats
T3 sequence (P63159 1-215): T1 sequence (P09429 1-215) with E189D, D202E
Excerpt: FIGS. 11A and 11B show the sex differences in plasma HMGB1 levels in response to αHMGB1^Cys106 peptides (e.g., SEQ. ID NO: 4) in early PH stages. Note: SU2 is related to the 2 weeks after exposure to SU5416 (PAH inducer), and is indicative of a relatively early disease stage; SU5 means 5 weeks after exposure to SU5416, and is indicative of an advanced stage of the disease.
The cytosol and nuclear levels of HMGB1 were affected by a cell-penetrating peptide designed to shield Cys106 (TAT-α-HMGB1^Cys106, or α-Cys106) and not any other peptide.

[10] = listed as α-Cys106, 2.5 mg/kg/day

Compound: FFLFCSEYRPKIKGRKKRRQRRRPQ [αHMGB1^Cys106 peptide, cell-penetrating TAT peptide designed to shield HMGB1 Cys106]
- genotoxic stress in HPAEC [1]: protective effect
- degradation of HMGB1 (HMGB1 [2]): lysosomal degradation
- cytosol and nuclear levels of HMGB1 (HMGB1 [2]): reduced; also recorded: affected
- cytosol and nuclear levels of HMGB1 (HMGB1 [2]; listed as HMGB1^Cys106 peptide): reduces HMGB1 levels
- cytosol and nuclear levels of HMGB1 (HMGB1 [2]; listed as TAT-α-HMGB1^Cys106): affected
- exit of nuclear HMGB1 to the cytosol (HMGB1 [2]): enhancing the nuclear HMGB1 exit to the cytosol
- exit of nuclear HMGB1 to the cytosol (HMGB1 [2]; listed as α-Cys106): enhanced the exit of nuclear HMGB1 to the cytosol
- degradation of HMGB1 (HMGB1 [2]; listed as α-Cys106): induced its proteasomal degradation
- HMGB1 level in PASMC (HMGB1 [2]; relative to untreated 1±0.097, N=6): 0.428±0.045
- HMGB1 level in PASMC with proteasome inhibitor (HMGB1 [2]; α-Cys106 plus proteasome inhibitor MG132, 10 μM, 1 hr, untreated 1±0.097, N=6): 0.885±0.049
- apoptosis in HPAEC [3]: anti-apoptotic effect
- p53 levels / expression (p53 [4]): reduces p53 levels
- p53 levels / expression (p53 [4]; listed as α-Cys106): negatively affected
- cell apoptosis (apoptosis): attenuates apoptosis
- cell apoptosis (apoptosis; listed as α-Cys106): reduced cell apoptosis
- TLR4 protein levels / expression (TLR4): reduces cytosolic and nuclear TLR4 protein levels
- TLR4 protein levels / expression (TLR4; listed as α-Cys106): negatively affected
- expression of p53 in vivo (p53 [5]): reduces expression of p53
- expression of p53 in vivo (p53 [5]; listed as αHMGB1^Cys106): negative regulation of p53 expression
- right ventricle systolic pressure ([6]; female Su/Hx rats, preventive study, 2.5 mg/kg/day i.p. for 2 wks, Su/Hx alone 73.2±3.4, p=0.0002): 50.4±3.0 mmHg
- right ventricle systolic pressure ([6]; female Su/Hx rats, treatment study, 2.5 mg/kg/day i.p. for 2 wks, Su/Hx alone 110.5±6.3, p=0.0005): 70.0±2.8 mmHg
- right ventricle (RV) systolic pressure ([6]; 2.5 mg/kg/day): decreases right ventricle (RV) systolic pressure
- right ventricle (RV) systolic pressure [6, 10]: decreased right ventricle (RV) systolic pressure
- protection of the RV ([6]; 2.5 mg/kg/day): protects the RV
- protection of the RV [6, 10]: protected the RV
- hemodynamic parameters / protection in males [6]: protected only by treatment protocol
- hemodynamic parameters / protection in males ([6]; listed as α-Cys106): no changes
- right ventricle systolic pressure ([6]; male Su/Hx rats, treatment protocol, 2.5 mg/kg/day i.p. for 2 wks, Su/Hx alone 101.7±2.7, p=0.0007, N=5-8): 73.4±6.4 mmHg
- PAH severity in Su/Hx model ([6]; rat Su/Hx, 2.5 mg/kg/day i.p. for 2 wks, 2.5 mg/kg/day): protective and treatment effects; also recorded: significantly attenuated PAH
- HMGB1 binding to DNA (HMGB1 elution after incubation with DNA cellulose) ([7]; FIG. 3): prevents HMGB1 binding to DNA
- decrease in HMGB1 binding to DNA ([7]; recombinant HMGB1, double-stranded DNA cellulose): ~5.9 fold
- genotoxic stress in vivo [8]: protects against genotoxic stress
- genotoxic stress in vivo ([8]; listed as αHMGB1^Cys106): inhibited genotoxic stress
- apoptosis in the lungs ([8]; female Su/Hx rats): decreases apoptosis; also recorded: mediates protection against apoptosis
- apoptosis in the lungs ([8]; female Su/Hx rats, listed as α-Cys106): anti-apoptotic effect
- apoptosis in the lungs ([8]; female Su/Hx rats, listed as αHMGB1^Cys106): reduced pulmonary apoptosis and senescence
- senescence [8]: protects against senescence
- senescence ([8]; listed as αHMGB1^Cys106): reduced pulmonary apoptosis and senescence
- cardiac fibrosis ([8]; heart of male Su/Hx rats): anti-fibrotic activity
- apoptosis in the lungs ([8]; male Su/Hx rats): does not manifest
- necroptosis ([8]; males at early PAH): protects against necroptosis
- cardiomyocyte hypertrophy ([8]; rat, in vivo): protective effect
- plasma HMGB1 levels (HMGB1 [9]; females, 2.5 mg/kg/day i.p.): reduced plasma HMGB1 levels
- plasma HMGB1 (HMGB1 [9]; male PH rats): no changes

Compound: CC(C)C[C@@H](C=O)NC(=O)[C@H](CC(C)C)NC(=O)[C@H](CC(C)C)NC(=O)OCc1ccccc1 [MG 132, reference compound] (Cbz-Leu-Leu-Leu-aldehyde)
- cytosolic and nuclear HMGB1 levels reduced by αHMGB1^Cys106 peptide, effect of proteasome inhibitor (HMGB1 [2]; FIGS. 2A, 2B): restores

Compound: SIGDVAKKLGEMWNNGRKKRRQRRRPQ [HMGB1^Cys23/45]
- cytosol and nuclear levels of HMGB1 (HMGB1 [2]): not
